Format in all cases: cell-based
For test [1], the target named is T1, Neuropeptide FF receptor 1 (Homo sapiens, UniProt Q9GZQ6). The test can be described thus: Displacement of [3H]FFRF-NH2 from human flag-tagged NPFF1 receptor expressed in CHO cells by scintillation counting. In general terms: Loss of bound radioactivity is the signal in a displacement assay; it reports binding, not function.
For test [2], the target named is T2, Neuropeptide FF receptor 2 (Homo sapiens, UniProt Q9Y5X5). The test can be described thus: Displacement of [3H]FFRF-NH2 from human flag-tagged NPFF2 receptor expressed in CHO cells by scintillation counting.
T2 sequence (Q9Y5X5 whole entry): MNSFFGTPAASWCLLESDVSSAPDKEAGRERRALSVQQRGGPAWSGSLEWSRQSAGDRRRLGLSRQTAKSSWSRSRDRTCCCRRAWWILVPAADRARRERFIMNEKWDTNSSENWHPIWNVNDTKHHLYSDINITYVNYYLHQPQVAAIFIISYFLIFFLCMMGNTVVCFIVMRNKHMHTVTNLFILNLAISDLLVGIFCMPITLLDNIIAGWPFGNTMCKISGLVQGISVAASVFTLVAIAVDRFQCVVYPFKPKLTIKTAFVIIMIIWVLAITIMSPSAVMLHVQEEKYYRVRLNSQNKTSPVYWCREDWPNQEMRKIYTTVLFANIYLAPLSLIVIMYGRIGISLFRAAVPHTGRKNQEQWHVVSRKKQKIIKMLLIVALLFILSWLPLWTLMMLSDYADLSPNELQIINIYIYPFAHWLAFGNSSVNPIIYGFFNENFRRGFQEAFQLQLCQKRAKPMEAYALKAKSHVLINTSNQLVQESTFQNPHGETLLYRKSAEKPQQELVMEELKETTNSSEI
Test [3] deals with T2, Neuropeptide FF receptor 2. The test can be described thus: Displacement of [3H]FFRF-NH2 from human flag-tagged NPFF2 receptor expressed in CHO cells at 500 nM by scintillation counting.
Test [4] addresses T1, Neuropeptide FF receptor 1. The test can be described thus: Displacement of [3H]FFRF-NH2 from human flag-tagged NPFF1 receptor expressed in CHO cells at 500 nM by scintillation counting.
The target of test [5] is T2, Neuropeptide FF receptor 2. Briefly: Displacement of [3H]FFRF-NH2 from human flag-tagged NPFF2 receptor expressed in CHO cells at 5 uM by scintillation counting.
The target of test [6] is T1, Neuropeptide FF receptor 1. Briefly: Displacement of [3H]FFRF-NH2 from human flag-tagged NPFF1 receptor expressed in CHO cells at 5 uM by scintillation counting.

pKi: −log10 of the molar value.

T1 sequence (Q9GZQ6 whole entry): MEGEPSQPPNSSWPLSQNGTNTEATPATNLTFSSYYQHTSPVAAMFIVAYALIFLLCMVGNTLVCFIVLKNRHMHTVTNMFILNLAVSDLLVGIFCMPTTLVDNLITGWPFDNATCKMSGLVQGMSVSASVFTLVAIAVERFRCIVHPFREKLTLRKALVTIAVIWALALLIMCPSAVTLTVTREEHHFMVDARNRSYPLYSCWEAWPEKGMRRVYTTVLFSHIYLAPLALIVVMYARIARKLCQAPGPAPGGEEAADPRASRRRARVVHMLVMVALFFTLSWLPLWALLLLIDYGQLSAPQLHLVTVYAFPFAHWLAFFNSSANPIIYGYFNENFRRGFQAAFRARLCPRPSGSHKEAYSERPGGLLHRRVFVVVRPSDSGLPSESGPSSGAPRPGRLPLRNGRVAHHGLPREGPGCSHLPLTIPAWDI

As a reminder, the pKi is the negative decadic logarithm of the Ki, by convention in mol/L. A lower pKi goes with a high Ki. Turning to `NC(=O)[C@H](Cc1ccccc1)NC(=O)[C@H](CCCN=C(N)N)NC(=O)CCN1c2ccccc2Sc2ccccc21`, the negative logarithm of the Ki (pKi) in test [1] was 9.05.

Take `NC(=O)[C@@H](Cc1ccccc1)NC(=O)[C@@H](CCCN=C(N)N)NC(=O)c1cccc(-c2ccccc2)c1`: the negative-log Ki (pKi) was 6.96 in test [1] and 6.17 in test [2].

Turning to `NC(=O)[C@@H](Cc1ccccc1)NC(=O)[C@@H](CCCN=C(N)N)NC(=O)c1ccccc1-c1ccccc1`, the negative-log Ki (pKi) in test [1] is 8.30; in test [2] it was 6.81.

As to `NC(=O)[C@H](Cc1ccccc1)NC(=O)[C@H](CCCN=C(N)N)NC(=O)c1cccc2ccccc12`, the negative-log Ki (pKi) in test [1] is 7.06; in test [2], 6.85.

`NC(=O)[C@@H](Cc1ccccc1)NC(=O)[C@@H](CCCN=C(N)N)NC(=O)C12CC3CC(CC(C3)C1)C2`: the negative logarithm of the Ki (pKi) was 7.29 in test [1] and 6.68 in test [2].

For orientation: inhibition means the relative decrease from the control value, in per cent. Read a low inhibition as little suppression. As to `COc1ccc(C(=O)N[C@@H](CCCNC(=N)N)C(=O)N[C@@H](Cc2ccccc2)C(N)=O)cn1`, the inhibition in test [3] was determined as 14%; in test [4], 19%; in test [5] it was 54%; in test [6], 77%.

As to `N=C(N)NCCC[C@H](NC(=O)c1ccc(-c2ccccc2)cc1)C(=O)N[C@@H](Cc1ccccc1)C(N)=O`, the inhibition came to 0% in test [3], 20% in test [4], 15% in test [5] and 43% in test [6].

Regarding `N=C(N)NCCC[C@H](NC(=O)c1cccc(-c2ccccc2)c1)C(=O)N[C@@H](Cc1ccccc1)C(N)=O`, the inhibition came to 27% in test [3], 26% in test [4], 56% in test [5] and 82% in test [6].

Take `N=C(N)NCCC[C@H](NC(=O)c1cccnc1)C(=O)N[C@@H](Cc1ccccc1)C(N)=O`: the inhibition came to 9% in test [3], 11% in test [4], 23% in test [5] and 64% in test [6].

With `CCCCCCCCCCC(=O)N[C@@H](CCCNC(=N)N)C(=O)N[C@@H](Cc1ccccc1)C(N)=O`, the inhibition was determined as 13% in test [3], 44% in test [4], 33% in test [5] and 100% in test [6].

In the case of `N=C(N)NCCC[C@H](NC(=O)c1ccncc1)C(=O)N[C@@H](Cc1ccccc1)C(N)=O`, the inhibition in test [3] came out at 2%; in test [4], 18%; in test [5], 21%; in test [6], 74%.

Regarding `N=C(N)NCCC[C@H](NC(=O)C(c1ccccc1)c1ccccc1)C(=O)N[C@@H](Cc1ccccc1)C(N)=O`, the inhibition in test [3] stood at 0%; in test [4], 34%; in test [5] it was 33%; in test [6], 88%.

In the case of `N=C(N)NCCC[C@H](NC(=O)c1cc2ccccc2[nH]1)C(=O)N[C@@H](Cc1ccccc1)C(N)=O`, the inhibition in test [3] was 35%; in test [4] it was 26%; in test [5], 80%; in test [6], 86%.

Consider `N=C(N)NCCC[C@H](NC(=O)Cc1ccccc1)C(=O)N[C@@H](Cc1ccccc1)C(N)=O`, for which the inhibition in test [3] was found to be 5%; in test [4], 26%; in test [5], 52%; in test [6], 82%.

On to `N=C(N)NCCC[C@H](NC(=O)/C=C/c1cccc(O)c1)C(=O)N[C@@H](Cc1ccccc1)C(N)=O`, for which the inhibition in test [3] was 15%; in test [4] it was 21%; in test [5], 47%; in test [6], 80%.

For the molecule `N=C(N)NCCC[C@H](NC(=O)Cc1ccc(O)c(O)c1)C(=O)N[C@@H](Cc1ccccc1)C(N)=O`, the inhibition in test [3] is 17%; in test [4], 0%; in test [5], 38%; in test [6], 61%.

With `Cc1ccc(CC(=O)N[C@@H](CCCNC(=N)N)C(=O)N[C@@H](Cc2ccccc2)C(N)=O)cc1`, the inhibition amounted to 5% in test [3], 34% in test [4], 14% in test [5] and 72% in test [6].

Consider `N=C(N)NCCC[C@@H](NC(=O)c1ccccc1-c1ccccc1)C(=O)N[C@H](Cc1ccccc1)C(N)=O`, for which the inhibition in test [3] was 8%; in test [4] it was 85%; in test [5] it was 70%; in test [6], 92%.

For the molecule `N=C(N)NCCC[C@@H](NC(=O)c1ccccc1)C(=O)N[C@H](Cc1ccccc1)C(N)=O`, the inhibition was found to be 15% in test [3], 35% in test [4], 30% in test [5] and 73% in test [6].

For the molecule `N=C(N)NCCC[C@@H](NC(=O)Cc1ccccc1)C(=O)N[C@H](Cc1ccccc1)C(N)=O`, the inhibition in test [3] is 4%; in test [4], 43%; in test [5], 30%; in test [6], 78%.

Regarding `COc1ccc(CC(=O)N[C@@H](CCCNC(=N)N)C(=O)N[C@@H](Cc2ccccc2)C(N)=O)cc1`, the inhibition in test [3] turned out to be 14%; in test [4], 18%; in test [5], 21%; in test [6], 52%.

Take `N=C(N)NCCC[C@H](NC(=O)/C=C/c1cnc[nH]1)C(=O)N[C@@H](Cc1ccccc1)C(N)=O`: the inhibition was 0% in test [3], 1% in test [4], 18% in test [5] and 22% in test [6].

In the case of `N=C(N)NCCC[C@H](NC(=O)Cc1ccccc1O)C(=O)N[C@@H](Cc1ccccc1)C(N)=O`, the inhibition was determined as 16% in test [3], 27% in test [4], 37% in test [5] and 92% in test [6].

Turning to `COc1ccc(/C=C/C(=O)N[C@@H](CCCNC(=N)N)C(=O)N[C@@H](Cc2ccccc2)C(N)=O)cc1`, the inhibition in test [3] was 21%; in test [4] it was 35%; in test [5], 64%; in test [6] it was 100%.

Take `N=C(N)NCCC[C@H](NC(=O)/C=C/c1ccccc1O)C(=O)N[C@@H](Cc1ccccc1)C(N)=O`: the inhibition in test [3] was found to be 17%; in test [4], 25%; in test [5], 77%; in test [6] it was 82%.

`N=C(N)NCCC[C@H](NC(=O)c1ccco1)C(=O)N[C@@H](Cc1ccccc1)C(N)=O`: the inhibition in test [3] was determined as 3%; in test [4] it was 42%; in test [5], 23%; in test [6], 92%.

As to `N=C(N)NCCC[C@H](NC(=O)c1ccccc1-c1ccccc1)C(=O)N[C@@H](Cc1ccccc1)C(N)=O`, the inhibition in test [3] was 22%; in test [4] it was 96%; in test [5] it was 30%; in test [6], 100%.

Consider `COc1ccccc1C(=O)N[C@@H](CCCNC(=N)N)C(=O)N[C@@H](Cc1ccccc1)C(N)=O`, for which the inhibition came out at 10% in test [3], 40% in test [4], 19% in test [5] and 96% in test [6].

In the case of `COc1ccc(C(=O)N[C@@H](CCCNC(=N)N)C(=O)N[C@@H](Cc2ccccc2)C(N)=O)cc1`, the inhibition was found to be 1% in test [3], 18% in test [4], 21% in test [5] and 71% in test [6].

Consider `N=C(N)NCCC[C@@H](NC(=O)C12CC3CC(CC(C3)C1)C2)C(=O)N[C@H](Cc1ccccc1)C(N)=O`, for which the inhibition in test [3] was determined as 11%; in test [4], 57%; in test [5], 57%; in test [6], 100%.

The record behind these values is ChEMBL document CHEMBL2203185, “Development of sub-nanomolar dipeptidic ligands of neuropeptide FF receptors” (Bioorg Med Chem Lett, 2012).
